Measurements reported in patent publication US8729090B1, “Compositions and methods for inhibiting collagen production” (Florida State University Research Foundation, Inc., priority 2011, dated 2014).

Experiments:
[1] = test system: primary human lung fibroblasts; assay: Inhibition of type I collagen secretion by primary human lung fibroblasts, western blot of cellular medium; type: cell-based; settings: two days; for secretion of type I collagen polypeptides COLα1(I) and COLα2(I) into the cellular medium: western blot
Description: Several chemical compounds were identified in this screen and tested for their ability to inhibit collagen production by primary human lung fibroblasts in culture. Lung fibroblasts are responsible for development of lung fibrosis. The compounds were added in a single dose of 100 μM to the lung fibroblasts, except compound 60D17, which was added at 10 μM. Two days after the addition of the compounds, the secretion of type I collagen into the cellular medium was analyzed by western blot. Both polypeptides which form type I collagen, COLα1(I) and COLα2(I), were analyzed.
Here, COLα1 represents the α1 polypeptide of type I collagen, COLα2 represents the α2 polypeptide of type I collagen, and FIB represents fibronectin, which was the control.

[2] = test system: lung fibroblasts; assay: Type I collagen expression of lung fibroblasts at therapeutic (nM) concentrations, western blot; type: cell-based, human
Description: In lung fibrosis the process of excessive collagen accumulation is similar to the liver, but the cells responsible for collagen synthesis are lung fibroblasts. Therefore, I tested the potency of 60D17 at therapeutic concentrations in lung fibroblasts before 60D17 was tested at higher concentrations in these cells.
Lane 4 represents untreated control cells.

[3] = test system: hepatic stellate cells (HSCs); assay: Inhibition of collagen α1(I) polypeptide synthesis in cultured hepatic stellate cells (HSCs), western blot; type: cell-based, rat; settings: added at day 3, measured at day 7
Excerpt: HSCs are liver cells responsible for collagen synthesis in hepatic fibrosis. […] In fibrotic livers, HSCs increase type I collagen expression 50-100 fold. Similar changes can be reproduced when HSCs are isolated from rat livers and cultured in vitro.
Three days after isolation and culturing, the HSCs still retain their quiescent phenotype and show little collagen expression. At day 5 after isolation the first significant increase in collagen expression becomes evident. After 7-8 days of culturing type I collagen expression increases 50-100 fold and attains its maximal level.
I used this model to test the efficacy of 60D17 in inhibiting collagen expression, because it is relevant to liver fibrosis. 60D17 was added at 100 nM and 250 nM concentrations to HSCs at day 3 in the culture. The cells were cultured until day 7 and the level of collagen α1(I) polypeptide was measured by western blot.
Lane 1 contained untreated cells. Lane 2 contained HSCs treated with 250 nM of 60D17. Lane 3 contained HSCs treated with 100 nM of 60D17. The panel on the left represents the cellular levels of collagen α1(I) polypeptide measured by western blot. Actin (ACT) was used as the loading control. The right panel represents the collagen α1(I) polypeptide level in the cellular medium.

[4] = Initial animal studies, tolerability in rats; type: in vivo
[5] = test system: rat liver slices; assay: Collagen expression in precision cut rat liver slices, western blot; type: cell-based; settings: 1 μM, 4 days, four slices
Description: In these experiments 60D17 was added to four different slices (lanes 2-5) […] at 1 μM concentration. The expression of both collagen α1(I) polypeptide, resolved here as procollagen (PRO-COLL1A1), and processed mature collagen (COLL 1A1) were measured by western blot. Lanes 1 and 6 were untreated control. Actin (ACT) was used as the loading control.
Precision cut liver slices were prepared from rat liver with a thickness of 350 μm and diameter of 8 mm. These slices were cultured in vitro for several days. Cutting the liver represents an injury thereto. In response to this injury, the slices initiate profibrotic changes. The response is similar to the fibrotic response of the intact organ, because the slices retain all different cell types and proper architecture of the organ. Thus, they mimic fibrosis initiation of the whole liver. Accordingly, this is a useful model to test the efficacy of 60D17 in blocking the profibrotic reaction.

[6] = test system: collagen synthesis; settings: cited from earlier work

NCc1ccc(N2CCOCC2)cc1 [1E10]
antifibrotic activity (collagen production by human lung fibroblasts, FIG. 1) ([1]; single dose of 100 μM): posses antifibrotic activity
secretion of type I collagen polypeptides COLα1(I) and COLα2(I) into the cellular medium ([1]; single dose of 100 μM): dramatically reduced excretion of both collagen polypeptides

O=c1c2oc3cccc4c3n(c=2c(=O)c2ccccc12)CCC4 [11M14]
antifibrotic activity (collagen production by human lung fibroblasts, FIG. 1) ([1]; single dose of 100 μM): posses antifibrotic activity
secretion of type I collagen polypeptides COLα1(I) and COLα2(I) into the cellular medium ([1]; single dose of 100 μM): reduced production of α1(I) polypeptide more than that of α2 polypeptide

Cc1cccn2c(=O)c3cc(C(=O)N4CCN(c5ccccc5)CC4)n(C)c3nc12 [13B8]
antifibrotic activity (collagen production by human lung fibroblasts, FIG. 1) ([1]; single dose of 100 μM): posses antifibrotic activity
secretion of type I collagen polypeptides COLα1(I) and COLα2(I) into the cellular medium ([1]; single dose of 100 μM): reduced production of α1(I) polypeptide more than that of α2 polypeptide

COC(=O)c1ccc2c3c([nH]c2c1)CCCC3 [13F20]
antifibrotic activity (collagen production by human lung fibroblasts, FIG. 1) ([1]; single dose of 100 μM): posses antifibrotic activity
secretion of type I collagen polypeptides COLα1(I) and COLα2(I) into the cellular medium ([1]; single dose of 100 μM): dramatically reduced excretion of both collagen polypeptides

Cc1cc(C)nc(-n2nc(-c3ccc4ccccc4c3)cc2O)n1 [45F6]
antifibrotic activity (collagen production by human lung fibroblasts, FIG. 1) ([1]; single dose of 100 μM): posses antifibrotic activity
secretion of type I collagen polypeptides COLα1(I) and COLα2(I) into the cellular medium ([1]; single dose of 100 μM): dramatically reduced excretion of both collagen polypeptides

COc1ccc(N2CCOCC2)c(NC(=O)C(C)(C)C)c1 [45I22]
antifibrotic activity (collagen production by human lung fibroblasts, FIG. 1) ([1]; single dose of 100 μM): posses antifibrotic activity
secretion of type I collagen polypeptides COLα1(I) and COLα2(I) into the cellular medium ([1]; single dose of 100 μM): dramatically reduced excretion of both collagen polypeptides

Cc1cc(C)nc(-n2[nH]c3nccc(-c4ccc5ccccc5c4)c3c2=O)n1 [49L20]
antifibrotic activity (collagen production by human lung fibroblasts, FIG. 1) ([1]; single dose of 100 μM): posses antifibrotic activity
secretion of type I collagen polypeptides COLα1(I) and COLα2(I) into the cellular medium ([1]; single dose of 100 μM): reduced production of α1(I) polypeptide more than that of α2 polypeptide

CCN1CCCC1CNC(=O)c1ccc(S(=O)(=O)N2CCOCC2)cc1 (stereo not drawn) [57N21]
antifibrotic activity (collagen production by human lung fibroblasts, FIG. 1) ([1]; single dose of 100 μM): posses antifibrotic activity
secretion of type I collagen polypeptides COLα1(I) and COLα2(I) into the cellular medium ([1]; single dose of 100 μM): reduced production of α1(I) polypeptide more than that of α2 polypeptide

Cn1c(C(=O)Nc2ccccc2)cc2c(=O)n3ccccc3nc21 [60D17-G]
synthesis of type I collagen ([2]; nM concentrations, cells not given): interfered with the synthesis of type I collagen at nM concentrations

Cc1cccn2c(=O)c3cc(C(=O)Nc4cccnc4)n(C)c3nc12 [60D17]
collagen α1(I) polypeptide expression in HSCs ([3]; 100 nM): significantly inhibited collagen production
collagen α1(I) polypeptide expression in HSCs ([3]; 250 nM): almost completely blocked the increase in collagen expression
tolerability in rats [4]: well tolerated
antifibrotic activity (collagen production by human lung fibroblasts, FIG. 1) ([1]; single dose of 10 μM): posses antifibrotic activity
secretion of type I collagen polypeptides COLα1(I) and COLα2(I) into the cellular medium ([1]; single dose of 10 μM): dramatically reduced excretion of both collagen polypeptides
expression of collagen α1(I) polypeptide in rat liver slices [5]: significantly inhibited expression of collagen α1(I) polypeptide
type I collagen expression ([2]; 50 nM): substantially ineffective
synthesis of collagen α1(I) polypeptide ([2]; 100 nM): smaller effect
synthesis of collagen α2(I) polypeptide ([2]; 100 nM): dramatically inhibited synthesis of collagen α2(I) polypeptide
production of both polypeptides comprising type I collagen ([2]; 500 nM, 18 h): almost completely inhibited

COC(=O)CNC(=O)c1cc2c(=O)n3cccc(C)c3nc2n1C [60J13]
antifibrotic activity (collagen production by human lung fibroblasts, FIG. 1) ([1]; single dose of 100 μM): posses antifibrotic activity
secretion of type I collagen polypeptides COLα1(I) and COLα2(I) into the cellular medium ([1]; single dose of 100 μM): dramatically reduced excretion of both collagen polypeptides

CN(C)c1cccc(-c2nn3c(-c4ccccn4)nnc3s2)c1 [60M4]
antifibrotic activity (collagen production by human lung fibroblasts, FIG. 1) ([1]; single dose of 100 μM): posses antifibrotic activity
secretion of type I collagen polypeptides COLα1(I) and COLα2(I) into the cellular medium ([1]; single dose of 100 μM): reduced α2 polypeptide more than α1 polypeptide

CC(CCO)Nc1nc2c(c(=O)n(C)c(=O)n2C)n1Cc1ccccc1F (stereo not drawn) [65N3]
antifibrotic activity (collagen production by human lung fibroblasts, FIG. 1) ([1]; single dose of 100 μM): posses antifibrotic activity
secretion of type I collagen polypeptides COLα1(I) and COLα2(I) into the cellular medium ([1]; single dose of 100 μM): dramatically reduced excretion of both collagen polypeptides

CCSc1nnc2c(n1)OC(c1ccncc1)=Nc1ccccc1-2 [67C17]
antifibrotic activity (collagen production by human lung fibroblasts, FIG. 1) ([1]; single dose of 100 μM): posses antifibrotic activity
secretion of type I collagen polypeptides COLα1(I) and COLα2(I) into the cellular medium ([1]; single dose of 100 μM): reduced α2 polypeptide more than α1 polypeptide

O=S(=O)(c1cccc2ccccc12)N1CCCNCC1 [ML-7]
collagen synthesis [6]: interferes with collagen synthesis
